Structures can show the parent of a compound that is named as a salt.
Key:
[1] = test system: spontaneously hypertensive rats of the Okamoto strain; assay: Hypotensive activity in spontaneously hypertensive rats (method of Chan and Poorvin); type: in vivo, rat; details: by gavage, 100 mg/kg or less, two doses 24 hours apart; MABP at 28 hours after initial dose; average baseline MABP 160±1.5 mm of mercury
Method: The novel compounds of the present invention are active hypotensive agents and were tested for hypotensive activity by the method of P. S. Chan and D. Poorvin, Clinical and Experimental Hypertension, 1 (6), 817-830 (1979). Male, 16 week old, spontaneously hypertensive rats of the Okamoto strain, from Taconic Farms, Germantown, New York, having an average mean arterial blood pressure of 160±1.5 mm of mercury, were used in the test. One to 3 rats were used per test compound. […] A second identical dose of the test compound, without sodium chloride loading was given 24 hours later. At 28 hours after the initial dose the mean arterial blood pressure (MABP) was measured. The procedure was repeated in a second and third rat when necessary.

[2] = molecular target: T1, thromboxane synthetase enzyme (Rattus norvegicus, UniProt P49430); assay: Thromboxane synthetase enzyme inhibition (TXB2 formation in platelet suspension, RIA); type: cell-based, Okamoto-Aoki spontaneously hypertensive rats (SHR); details: concentration 1 × 10^-4 M; SHR platelet suspension, 10 minutes at 37° C.
T1 construct: The platelets were isolated by centrifuging the PRP for 10 minutes; from tissue; host or cells: washed platelets from arterial blood of Okamoto-Aoki spontaneously hypertensive rats (animals from Taconic Farms)
T1 sequence (P49430 1-533): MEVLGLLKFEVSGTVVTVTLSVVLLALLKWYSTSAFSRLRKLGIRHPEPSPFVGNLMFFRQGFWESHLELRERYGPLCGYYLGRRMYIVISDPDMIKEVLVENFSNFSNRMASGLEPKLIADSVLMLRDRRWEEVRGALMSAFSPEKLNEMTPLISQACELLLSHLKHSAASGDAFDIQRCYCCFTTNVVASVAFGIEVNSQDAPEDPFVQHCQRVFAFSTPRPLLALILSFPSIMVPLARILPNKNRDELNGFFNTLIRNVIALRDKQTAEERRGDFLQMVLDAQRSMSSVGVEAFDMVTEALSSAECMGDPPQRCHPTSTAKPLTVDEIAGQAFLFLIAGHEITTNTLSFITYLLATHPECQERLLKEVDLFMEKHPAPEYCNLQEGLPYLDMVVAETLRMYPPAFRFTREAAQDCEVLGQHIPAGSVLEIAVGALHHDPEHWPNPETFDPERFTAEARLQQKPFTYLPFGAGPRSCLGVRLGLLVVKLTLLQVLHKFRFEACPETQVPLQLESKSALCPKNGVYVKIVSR
Method: Under urethan anethesia, […] of arterial blood from Okamoto-Aoki spontaneously hypertensive rats (SHR) (Taconic Farms, Germantown, New York) between 19 and 24 weeks in age was collected in 1 ml of 3.2% sodium citrate in a polystyrene tube. The blood was diluted with 3 ml of cold saline and centrifuged at room temperature for 15 minutes at 460Xg. The platelet rich plasma (PRP) was separated. The platelets were isolated by centrifuging the PRP for 10 minutes at 1060Xg and were washed in 4 ml of cold oxygenated Krebs phosphate buffer, pH 7.4. The chilled platelets, recovered from centrifuging at 800Xg for 10 minutes, were resuspended in oxygenated Krebs phosphate buffer and diluted to contain 4.5-6.0×10^4 platelets/μl. The inhibition of thromboxane (TX) formation was studied by determining the concentration of thromboxane B2 (TXB2), the stable hydrolysis product of TXA2. Assay samples, prepared on ice, contained 200 μl platelet suspension, 50 μl saline, and 50 μl vehicle or drug under study at a concentration of 1×10^-4 M. The samples were incubated for 10 minutes at 37° C. in metabolic shaker. The reaction was terminated by immersing the tubes in an ice bath and adding 50 μl of 0.5M citric acid. The samples were centrifuged for 10 minutes in a refrigerated centrifuge and the supernatants thus obtained were decanted and stored at -20° C. The TXB2 content for each sample was determined by a direct radioimmunoassay (RIA) utilizing a TXB2 specific RIA kit purchased from New England Nuclear, Boston, Massachusetts and expressed as pg TXB2 formed minute^-1 sample^-1, from which the percent inhibition of TXB2 formation was calculated.

[3] = test system: KCl-induced cardiac arrhythmias, fibrillation and cardiac death in mice; assay: Antiarrhythmic/antifibrillatory activity in anesthetized mice, potassium chloride challenge; type: in vivo, mice of the Swiss Webster Strain; details: Mus musculus, iv, 0.25 h, potassium chloride 62.5 mg/kg i.v.; for responders at 10 mg/kg: Dose = 10 mg/kg I.V., 15 minutes observation, read-out: KCl Mice Surviving / Mice Tested (converted)
Excerpt: (§1) Intravenous administration of high doses of calcium or potassium chloride in animals produces cardiac arrhythmias, cardiac fibrillation and cardiac arrest. Any agent that can prevent these events is considered an antiarrhythmic/antifibrillatory agent. (Meth. and Find Exptl. Clin Pharmacal.2:223-252(1980); Pharmacol Ther. 24:401-433 (1984); Experimental Cardiac and Antiarrhythmic Drugs, L. Szekeres and Gy. J. Dapp, Akademiai Kiado Preso, Budapest, 9-448 (1971)).
(§2) The method employed is as follows: Male mice of the Swiss Webster Strain (Charles River, Wilmington, MA) weighing 25-35 g were anesthetized with ethyl carbamate (urethan) (1.5g/kg body weight i.p.). A 25-gauge needle attached to PE-20 tubing was inserted into a caudal vein for drug administration. The lead II ECG was recorded by needle electrodes placed subcutaneously in the limbs. All data were collected on a Gould Brush recorder. Animals were observed 5 minutes before drug administration. A 5, 15 or 30 minute period following drug administration was allowed before the bolus injection of calcium chloride, 200 mg/ kg i.v. or potassium chloride, 62.5 mg/kg i.v. Control mice received 4 ml/kg of 0.9% sodium chloride i.v. Mice were observed an additional 15 minutes for arrhythmias,fibrillation, survival or death. Any compound at a dose of less than 20 mg/kg i.v. in either test that protects from cardiac death 3 or more mice out of 6 mice, is considered active.

[4] = test system: CaCl2-induced cardiac arrhythmias, fibrillation and cardiac death in mice; assay: Antiarrhythmic/antifibrillatory activity in anesthetized mice, calcium chloride challenge; type: in vivo, mice of the Swiss Webster Strain; details: Mus musculus, iv, 0.25 h, calcium chloride 200 mg/kg i.v., read-out: CaCl2 Mice Surviving / Mice Tested (converted); for responders at 10 mg/kg: Dose = 10 mg/kg I.V., 15 minutes observation
Excerpt: as §1, §2

inhibition at 100 µM [2] [%] | Compound | responders at 10 mg/kg [3] [%] | responders at 10 mg/kg [4] [%] | also measured
96 | c1cncc(CCCCN=C2c3cccc4cccc(c34)N2Cc2cccnc2)c1 [Example 31, N-[1-(3-Pyridinylmethyl)benz[cd]indol 2(1H)-ylidene]-3-pyridinebutanamine, dihydrochloride] |  |  | Avg. MABP in mm Hg (No. of Rats) [1]: 119 mm Hg
 | CN1C(=NCCCn2ccnc2)c2cccc3cccc1c23 [Example 18, N-[1-Methylbenz[cd]indol-2(1H)-ylidene]-1H-imidazole-1-propanamine, (E)-2-butenedioate (1:2)] | 66.7 | 0 | 
94 | CCCCCCN1C(=NCCCn2ccnc2)c2cccc3cccc1c23 [Example 16, N-(1-Hexylbenz[cd]indol-2(1H)-ylidene)-1H-imidazole 1-propanamine, (E)-2-butenedioate (1:2)] |  |  | 
 | CCN(CC)CCNC(=O)c1ccc(N)cc1 [Procainamide, reference compound] |  |  | responders at 5 mg/kg ([3]; 5 mg/kg i.v., read-out: KCl Mice Surviving / Mice Tested): 70%
 | CN1C(=NCCCCn2ccnc2)c2cccc3cccc1c23 [Example 22, N-(1-Methylbenz[cd]indol-2(1H)-ylidene)-1H-imidazole-1-butanamine] |  |  | Avg. MABP in mm Hg (No. of Rats) [1]: 112 mm Hg
 | c1ccc(C(c2ccccc2)N2C(=NCCCCc3cccnc3)c3cccc4cccc2c34)cc1 [Example 30] | 83.3 | 16.7 | 
90 | Cl.Cl.c1ccc(OCCCN2C(=NCCCn3ccnc3)c3cccc4cccc2c34)cc1 [Example 12, N-[1-(3-Phenoxypropyl)benz[cd]indol-2(1H)-ylidene]-1H-imidazole-1-propanamine, dihydrochloride] |  |  | Avg. MABP in mm Hg (No. of Rats) [1]: 122 mm Hg
 | c1cc2c3c(cccc3c1)N(CCCN1C(=NCCCn3ccnc3)c3cccc4cccc1c34)C2=NCCCn1ccnc1 [Example 20, N,N'-[1,3-Propanediylbis(benz[cd]indol-1(2H)-ylidene)]bis-1H-imidazole-1-propanamine] | 0 | 66.7 | 
 | c1ccc(CN2C(=NCCCn3ccnc3)c3cccc4cccc2c34)cc1 [Example 5, N-[1-(Phenylmethyl)benz[cd]indol-2 (1H)-ylidene]-1H-imidazole-1-propanamine] | 83.3 | 83.3 | 
 | CN1C(=NCCCn2ccnc2)c2cccc3c(CO)ccc1c23 [Example 21, 1,2-Dihydro-2-[[3-(1H-imidazol-1-yl)propyl]imino]-1-methylbenz[cd]indole-6-methanol, (E)-2-butanedioate (1:1)] | 83.3 | 43.8 | 
92 | c1ccc(CCCN2C(=NCCCn3ccnc3)c3cccc4cccc2c34)cc1 [Example 13, N-[1-(3-Phenylpropyl)benz[cd]indol-2(1H)-ylidene]-1H-imidazole-1-propanamine, (E)-2-butenedioate (1:2)] |  |  | 
 | CCN(CC)CCN1C(=NCCCn2ccnc2)c2cccc3cccc1c23 [Example 17, N,N-Diethyl-2-[[3-(1H-imidazol-1-yl)propyl]imino]benz[cd]indole-1(2H)-ethanamine, (E)-2butenedioate (1:3)] | 66.7 | 16.7 | 
 | C=C[C@H]1C[N@@]2CC[C@H]1C[C@@H]2[C@@H](O)c1ccnc2ccc(OC)cc12 [Quinidine, reference compound] |  |  | responders at 15 mg/kg ([3]; 15 mg/kg i.v., read-out: KCl Mice Surviving / Mice Tested): 30%; responders at 15 mg/kg ([4]; 15 mg/kg i.v.): 75%
 | COc1cccc(CN2C(=NCCCn3ccnc3)c3cccc4cccc2c34)c1 [Example 14, N-[1-[(3Methoxyphenyl)methyl]benz[cd]indol-2(1H)-ylidene]-1H-imidazole-1-propanamine] | 66.7 | 16.7 | Avg. MABP in mm Hg (No. of Rats) [1]: 104 mm Hg
 | CCN(CC)CC(=O)Nc1c(C)cccc1C [Lidocaine, reference compound] | 50 | 83.3 | 
 | c1ccc(CN2C(=NCCCCc3cccnc3)c3cccc4cccc2c34)cc1 [Example 29, N-[1-(Phenylmethyl)benz[cd]indol-2(1H)-ylidene]-3-pyridinebutanamine, (E)-2 butenedioate (1:2)] | 66.7 | 33.3 | 
93 | CCCCCCN1C(=NCCCCc2cccnc2)c2cccc3cccc1c23 [Example 33, N-(1-Hexylbenz[cd]indol-2(1H)-ylidene)-3-pyridinebutanamine, (E)-2-butenedioate (2:3)] |  |  | 

Compound | inhibition at 100 µM [2] [%] | responders at 10 mg/kg [3] [%] | responders at 10 mg/kg [4] [%] | also measured
c1ccc(CN2C(=NCCCn3ccnc3)c3cccc4cccc2c34)cc1 [Example 6, N-[1-(Phenylmethyl)benz[cd]indol-2(1H)-ylidene]-1H-imidazole-1-propanamine,(E)-2-butenedioate (1:2)] | 90 |  |  | 
c1ccc(C(c2ccccc2)N2C(=NCCCn3ccnc3)c3cccc4cccc2c34)cc1 [Example 7, N-[1 (Diphenylmethyl)benz[cd]indol-2(1H)-ylidene]-1H-imidazole-1 propanamine] | 75 | 83.3 | 16.7 | 
N#CCCCCN1C(=NCCCn2ccnc2)c2cccc3cccc1c23 [Example 15, 2-[[3-(1H-Imidazol-1 yl)propyl]imino]benz[cd]indole-1(2H)-pentanenitrile] | 94 | 50 | 16.7 | 
CCN(CC)CCN1C(=NCc2cccnc2)c2cccc3cccc1c23 [Example 25, N,N-Diethyl-2-[(3-pyridinylmethyl)imino]benz[cd]indol-1(2H)ethanamine, (E)-2-butenedioate (2:3)] | 91 | 50 | 16.7 | 

— patent publication US5079247A, “N^1 -substituted benz(cd)indol-2-imine compounds as cardiovascular agents” (American Cyanamid Company, priority 1990, dated 1992)
